As a reminder, the IC50 is the concentration at which inhibition is half-maximal.

This passage reports IC50 results from patent publication US20230406864A1, “7-AZOLE SUBSTITUTED 2-AMINOQUINAZOLINE INHIBITORS OF HPK1” (MERCK SHARP & DOHME LLC, priority 2020, published 2023).

In the test the target is T1, Human HPK1, catalytic domain (Homo sapiens, UniProt Q92918).
T1 construct: purchased Cama (so in the source)
T1 sequence (Q92918 1-346): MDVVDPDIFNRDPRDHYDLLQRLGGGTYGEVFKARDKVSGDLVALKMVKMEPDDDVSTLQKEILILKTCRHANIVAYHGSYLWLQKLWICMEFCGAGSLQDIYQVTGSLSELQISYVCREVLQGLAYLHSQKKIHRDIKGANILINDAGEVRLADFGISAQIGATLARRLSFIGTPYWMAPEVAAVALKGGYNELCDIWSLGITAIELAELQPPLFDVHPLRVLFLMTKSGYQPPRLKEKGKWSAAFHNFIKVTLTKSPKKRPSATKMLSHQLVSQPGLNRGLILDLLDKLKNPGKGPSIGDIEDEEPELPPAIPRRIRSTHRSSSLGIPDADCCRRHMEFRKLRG
Kind of test: HPK1-SLP76 TR-FRET assay. Type of test: biochemical. As to conditions: HPK1 kinase domain 0.075 nM; full length SLP-76 10 nM; ATP 10 μM; 30 min preincubation; 60 min reaction; room temperature. A general note: Time-resolved FRET reads energy transfer from a long-lived donor to a nearby acceptor.

Compound `Cc1c(-c2cc3nc(Nc4cnn([C@H]5CCN(C)C5)c4)ncc3c(N)c2F)cnc2c1NCCO2` [Example 2-47, (S)-6-fluoro-7-(8-methyl-2,3-dihydro-1H-pyrido[2,3-b][1,4]oxazin-7-yl)-N2-(1-(1-methylpyrrolidin-3-yl)-1H-pyrazol-4-yl)quinazoline-2,5-diamine] had a half-maximal inhibitory concentration (IC50) of 0.177 nM.
For the compound `Cc1c(-c2cc3nc(Nc4cnn([C@@H]5CCN(C)C5)c4)ncc3c(N)c2F)cnc2c1NCCO2` [Example 2-48, (R)-6-fluoro-7-(8-methyl-2,3-dihydro-1H-pyrido[2,3-b][1,4]oxazin-7-yl)-N2-(1-(1-methylpyrrolidin-3-yl)-1H-pyrazol-4-yl)quinazoline-2,5-diamine], the IC50 was 0.166 nM.
